Test results published in patent US10450297B2, “Sulfonyl amide derivatives for the treatment of abnormal cell growth” (Pfizer, Inc., priority 2007, dated 2019).

Target: FAK kinase (catalytic construct FAK(410-689)) (Homo sapiens (Human), UniProt Q05397)
Experiment: FAKcd kinase ELISA (inhibition of poly-glu-tyr phosphorylation by FAK(410-689))
Format: biochemical
Settings: 50 μM final ATP

Sequence of FAK kinase (catalytic construct FAK(410-689)) (Q05397 410-689): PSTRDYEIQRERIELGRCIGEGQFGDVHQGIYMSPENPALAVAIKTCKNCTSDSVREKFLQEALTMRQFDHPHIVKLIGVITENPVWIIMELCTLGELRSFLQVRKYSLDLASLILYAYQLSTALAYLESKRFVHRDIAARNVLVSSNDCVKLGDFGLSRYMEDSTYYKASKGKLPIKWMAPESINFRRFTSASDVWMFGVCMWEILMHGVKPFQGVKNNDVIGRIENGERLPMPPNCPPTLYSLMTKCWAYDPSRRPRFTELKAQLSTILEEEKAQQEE

Row | Structure (SMILES) | IC50 [nM]
1 | CN(c1nccnc1CNc1nc(Nc2ccc(C(C)(C)O)cc2)ncc1C(F)(F)F)S(C)(=O)=O [Compound 326, N-[3-({[2-{(4-(1-hydroxy-1-methylethyl)phenyl]amino}-5-(trifluoromethyl)pyrimidin-4-yl]amino}methyl)pyrazin-2-yl]-N-methylmethane-sulfonamide] | 1.62
2 | CN(c1nccnc1CNc1nc(Nc2ccc(C(N)=O)c(F)c2)ncc1C(F)(F)F)S(C)(=O)=O [Compound 327, 2-fluoro-4-({4-[({3-[methyl(methylsulfonyl)amino]pyrazin-2-yl}methyl)amino]-5-(trifluoromethyl)pyrimidin-2-yl}amino)benzamide] | 1.69
3 | CC(O)c1ccc(Nc2ncc(C(F)(F)F)c(NCc3cccc(N(C)S(C)(=O)=O)c3)n2)cc1 (stereo not drawn) [Compound 328, N-[3-({[2-{[4-(1-hydroxyethyl)phenyl]amino}-5-(trifluoromethyl)pyrimidin-4-yl]amino}methyl)phenyl]-N-methylmethanesulfonamide] | 0.619
4 | CC(O)c1ccc(Nc2ncc(C(F)(F)F)c(NCc3ncccc3N(C)S(C)(=O)=O)n2)cc1 (stereo not drawn) [Compound 329, N-[2-({[2-{[4-(1-hydroxyethyl)phenyl}amino}-5-(trifluoromethyl)pyrimidin-4-yl]amino}methyl)pyridin-3-yl)-N-methylmethane-sulfonamide] | 0.914
5 | CC(O)c1ccc(Nc2ncc(C(F)(F)F)c(NCc3nccnc3N(C)S(C)(=O)=O)n2)cc1 (stereo not drawn) [Compound 330, N-[3-({[2-{[4-(1-hydroxyethyl)phenyl]amino}-5-(trifluoromethyl)pyrimidin-4-yl]amino}methyl)pyrazin-2-yl]-N-methylmethane-sulfonamide] | 0.75
6 | CN(c1cccnc1CNc1nc(Nc2ccc(C(N)=O)c(F)c2)ncc1C(F)(F)F)S(C)(=O)=O [Compound 331, 2-fluoro-4-({4-[({3-[methyl(methylsulfonyl)amino]pyridin-2-yl}methyl)amino]-5-(trifluoromethyl)pyrimidin-2-yl}amino)benzamide] | 1.77
7 | CN(c1cccnc1CNc1nc(Nc2ccc(C(N)=O)c(F)c2)ncc1C(F)(F)F)S(C)(=O)=O [Compound 332, 2-fluoro-4-({4-[({3-[methyl(methylsulfonyl)amino]pyridin-2-yl}methyl)amino]-5-(trifluoromethyl)pyrimidin-2-yl}amino)benzamide] | 0.863
8 | CN(c1cccc(CNc2nc(Nc3ccc(C(N)=O)c(F)c3)ncc2C(F)(F)F)c1)S(C)(=O)=O [Compound 333, 2-fluoro-4-{[4-({3-[methyl(methylsulfonyl)amino]benzyl}amino)-5-(trifluoromethyl)pyrimidin-2-yl]amino}benzamide] | 2.14
9 | Cc1cc(Nc2ncc(C(F)(F)F)c(NCc3cccnc3N(C)S(C)(=O)=O)n2)ccc1C(N)=O [Compound 334, 2-methyl-4-({4-[({2-[methyl(methylsulfonyl)amino]pyridin-3-yl}methyl)amino]-5-(trifluoromethyl)pyrimidin-2-yl)amino)benzamide] | < 0.595
10 | Cc1cc(Nc2ncc(C(F)(F)F)c(NCc3ncccc3N(C)S(C)(=O)=O)n2)ccc1C(N)=O [Compound 336, 2-methyl-4-({4-[({3-[methyl(methylsulfonyl)amino]pyridin-2-yl}methyl)amino]-5-(trifluoromethyl)pyrimidin-2-yl)amino)benzamide] | < 0.595
11 | Cc1cc(Nc2ncc(C(F)(F)F)c(NCc3nccnc3N(C)S(C)(=O)=O)n2)ccc1C(N)=O [Compound 338, 2-methyl-4-({4-[({3-[methyl(methylsulfonyl)amino]pyrazin-2-yl}methyl)amino]-5-(trifluoromethyl)pyrimidin-2-yl}amino)benzamide] | < 0.595
12 | Cc1cc(Nc2ncc(C(F)(F)F)c(NCc3cccc(N(C)S(C)(=O)=O)c3)n2)ccc1C(N)=O [Compound 340, 2-methyl-4-{[4-({3-[methyl(methylsulfonyl)amino]benzyl}amino)-5-(trifluoromethyl)pyrimidin-2-yl]amino}benzamide] | < 0.595
13 | Cc1cc(C(N)=O)ccc1Nc1ncc(C(F)(F)F)c(NCc2cccnc2N(C)S(C)(=O)=O)n1 [Compound 341, 3-methyl-4-({4-[({2-[methyl(methylsulfonyl)amino]pyridin-3-yl}methyl)amino]-5-(trifluoromethyl)pyrimidin-2-yl}amino)benzamide] | < 0.595
14 | Cc1cc(C(N)=O)ccc1Nc1ncc(C(F)(F)F)c(NCc2cccnc2N(C)S(C)(=O)=O)n1 [Compound 342, 3-methyl-4-({4-[({2-[methyl(methylsulfonyl)amino]pyridin-3-yl}methyl)amino]-5-(trifluoromethyl)pyrimidin-2-yl}amino)benzamide] | 1.03
15 | Cc1cc(C(N)=O)ccc1Nc1ncc(C(F)(F)F)c(NCc2ncccc2N(C)S(C)(=O)=O)n1 [Compound 343, 3-methyl-4-({4-[({3-[methyl(methylsulfonyl)amino]pyridin-2-yl}methyl)amino]-5-(trifluoromethyl)pyrimidin-2-yl}amino)benzamide] | 0.993
16 | Cc1cc(C(N)=O)ccc1Nc1ncc(C(F)(F)F)c(NCc2nccnc2N(C)S(C)(=O)=O)n1 [Compound 344, 3-methyl-4-({4-[({3-[methyl(methylsulfonyl)amino]pyrazin-2-yl}methyl)amino]-5-(trifluoromethyl)pyrimidin-2-yl}amino)benzamide] | 0.9
17 | Cc1cc(C(N)=O)ccc1Nc1ncc(C(F)(F)F)c(NCc2nccnc2N(C)S(C)(=O)=O)n1 [Compound 345, 3-methyl-4-({4-[({3-[methyl(methylsulfonyl)amino]pyrazin-2-yl}methyl)amino]-5-(trifluoromethyl)pyrimidin-2-yl}amino)benzamide] | 0.981
18 | Cc1cc(C(N)=O)ccc1Nc1ncc(C(F)(F)F)c(NCc2cccc(N(C)S(C)(=O)=O)c2)n1 [Compound 346, 3-methyl-4-{[4-({3-[methyl(methylsulfonyl)amino]benzyl}amino)-5-(trifluoromethyl)pyrimidin-2-yl]amino}benzamide] | 0.886
19 | CC(C)OCc1ccc(Nc2ncc(C(F)(F)F)c(NCc3cccnc3N(C)S(C)(=O)=O)n2)cc1 [Compound 347, N-[3-({{2-{[4-(isopropoxymethyl)phenyl]amino}-5-(trifluoromethyl)pyrimidin-4-yl]amino}methyl)pyridin-2-yl]-N-methylmethane-sulfonamide] | 2.15
20 | CN(c1ncccc1CNc1nc(Nc2ccc(CN3CCOCC3)cc2)ncc1C(F)(F)F)S(C)(=O)=O [Compound 349, N-methyl-N-[3-({[2-{[4-(morpholin-4-ylmethyl)phenyl]amino}-5-(trifluoromethyl)pyrimidin-4-yl]amino}methyl)pyridin-2-yl]methanesuifonamide] | < 0.595
21 | CN(c1ncccc1CNc1nc(Oc2ccc(C(N)=O)cc2)ncc1C(F)(F)F)S(C)(=O)=O [Compound 350, 4-({4-[({2-[methyl(methylsulfonyl)amino]pyridin-3-yl}methyl)amino]-5-(trifluoromethyl)pyrimidin-2-yl}oxy)benzamide] | 63.7
22 | C[C@@H](N)c1ccc(Nc2ncc(C(F)(F)F)c(NCc3ncccc3N(C)S(C)(=O)=O)n2)cc1 [Compound 352, N-[2-({[2-({4-[(1R)-1-aminoethyl]phenyl}amino)-5-(trifluoromethyl)pyrimidin-4-yl]amino}methyl)pyridin-3-yl]-N-methylmethane-sulfonamide] | < 0.595
23 | C[C@@H](N)c1ccc(Nc2ncc(C(F)(F)F)c(NCc3cccc(N(C)S(C)(=O)=O)c3)n2)cc1 [Compound 353, N-[3-({[2-({4-[(1R)-1-aminoethyl]phenyl}amino)-5-(trifluoromethyl)pyrimidin-4-yl]amino}methyl)phenyl]-N-methylmethanesulfonamide] | < 0.595
24 | C[C@H](N)c1ccc(Nc2ncc(C(F)(F)F)c(NCc3nccnc3N(C)S(C)(=O)=O)n2)cc1 [Compound 355, N-[3-({[2-({4-((1S)-1-aminoethyl]phenyl}amino)-5-(trifluoromethyl)pyrimidin-4-yl]amino}methyl)pyrazin-2-yl]-N-methylmethane-sulfonamide] | < 0.595
25 | C[C@H](N)c1ccc(Nc2ncc(C(F)(F)F)c(NCc3ncccc3N(C)S(C)(=O)=O)n2)cc1 [Compound 356, N-[2-({[2-({4-[(1S)-1-aminoethyl]phenyl}amino)-5-(trifluoromethyl)pyrimidin-4-yl]amino}methyl)pyridin-3-yl]-N-methylmethane-sulfonamide] | 0.593
26 | CN(c1cccc(CNc2nc(Nc3ccc(C(N)=O)c(Cl)c3)ncc2C(F)(F)F)c1)S(C)(=O)=O [Compound 357, 2-chloro-4-{[4-({3-[methyl(methylsulfonyl)amino]benzyl}amino)-5-(trifluoromethyl)pyrimidin-2-yl]amino}benzamide] | 1.47
27 | CN(c1ncccc1CNc1nc(Nc2ccc(C(N)=O)c(Cl)c2)ncc1C(F)(F)F)S(C)(=O)=O [Compound 358, 2-chloro-4-({4-[({2-[methyl(methylsulfonyl)amino]pyridin-3-yl}methyl)amino]-5-(trifluoromethyl)pyrimidin-2-yl}amino)benzamide] | < 0.595
28 | CN(c1cccnc1CNc1nc(Nc2ccc(C(N)=O)c(Cl)c2)ncc1C(F)(F)F)S(C)(=O)=O [Compound 359, 2-chloro-4-({4-[({3-[methyl(methylsulfonyl)amino]pyridin-2-yl}methyl)amino]-5-(trifluoromethyl)pyrimidin-2-yl}amino)benzamide] | < 0.595
29 | CN(c1nccnc1CNc1nc(Nc2ccc(C(N)=O)c(Cl)c2)ncc1C(F)(F)F)S(C)(=O)=O [Compound 360, 2-chloro-4-({4-[({3-[methyl(methylsulfonyl)amino]pyrazin-2-yl}methyl)amino]-5-(trifluoromethyl)pyrimidin-2-yl}amino)benzamide] | < 0.595
30 | CN(c1ncccc1CNc1nc(Nc2cccc(C(=O)NC3CCNCC3)c2)ncc1C(F)(F)F)S(C)(=O)=O [Compound 361, 3-({4-[({2-[methyl(methylsulfonyl)amino]pyridin-3-yl}methyl)amino]-5-(trifluoromethyl)pyrimidin-2-yl}amino)-N-piperidin-4-ylbenzamide] | 8.7
